Key:
NF-κB (p65) = NF-κB (p65) (Homo sapiens, UniProt Q04206); assay: Enzyme-based ELISA NF-κB p65 inhibition assay; assay type: biochemical; conditions: for IC50: read-out: NF-κB p65 inhibition IC50, ELISA, rocaglamide positive control; for NF-κB (p65) inhibitory activity (result in words): inactive = IC50 > 10 µM
[1] = system: HT-29 human colon cancer cell line
[2] = system: panel of human cancer cell lines; conditions: reported previously; cited from earlier work

Chain of NF-κB (p65) (Q04206 whole entry): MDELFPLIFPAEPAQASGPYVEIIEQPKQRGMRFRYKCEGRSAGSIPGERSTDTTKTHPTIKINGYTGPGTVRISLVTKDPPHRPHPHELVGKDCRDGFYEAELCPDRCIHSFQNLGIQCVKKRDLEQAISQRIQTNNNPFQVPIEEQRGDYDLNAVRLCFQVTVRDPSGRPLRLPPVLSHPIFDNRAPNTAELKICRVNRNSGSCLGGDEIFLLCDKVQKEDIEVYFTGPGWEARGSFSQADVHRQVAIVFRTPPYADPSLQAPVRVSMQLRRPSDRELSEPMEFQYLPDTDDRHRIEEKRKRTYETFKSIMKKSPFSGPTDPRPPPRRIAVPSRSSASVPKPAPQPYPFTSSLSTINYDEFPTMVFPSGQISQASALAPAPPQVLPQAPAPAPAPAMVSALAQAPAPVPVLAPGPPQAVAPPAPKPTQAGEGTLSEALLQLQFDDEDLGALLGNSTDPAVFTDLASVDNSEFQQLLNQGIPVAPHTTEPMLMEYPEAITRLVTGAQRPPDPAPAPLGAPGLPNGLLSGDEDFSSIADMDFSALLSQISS

| Compound | IC50 (NF-κB (p65)) [µM] | NF-κB (p65) inhibitory activity (result in words) (NF-κB (p65)) | IC50 [1] [µM] | Cytotoxicity toward a panel of human cancer cell lines (result in words) [2] |
| --- | --- | --- | --- | --- |
| 4,5-dihydrolychnopholide [Compound 13] | > 10 |  |  |  |
| 15-deoxygoyazensolide [Compound 10] | 3.2 | active | 0.26 |  |
| C=C1C(=O)OC2CC(C)CCC(=O)C(C)(OC(C)=O)CC(OC(=O)C(C)=CC)C12 [Compound 3, (4S,6R,7S,8S,10R)-1-oxo-8-angeloyloxy-10-acetoxygermacra-11(13)-en-6,12-olide] | > 10 |  | 3 |  |
| C=C1C(=O)O[C@@H]2C/C(C)=C\CC(=O)[C@](C)(OC(C)=O)C[C@H](OC(=O)/C(C)=C\C)[C@@H]12 [Compound 4, (6R,7S,8S,10R)-1-oxo-8-angeloyloxy-10-acetoxygermacra-3(4),11(13)-dien-6,12-olide] | > 10 |  |  |  |
| C=C1C(=O)OC2CC(C)C(OC)CC(=O)C(C)(OC(C)=O)CC(OC(=O)C(C)=CC)C12 [Compound 5, (3R,4R,6R,7S,8S,10R)-1-oxo-3-methoxy-8-angeloyloxy-10-acetoxygermacra-11(13)-en-6,12-olide] | 2.1 | active |  |  |
| C=C1C(=O)OC2CC(C)C(OC)CC(=O)C(C)(O)CC(OC(=O)C(C)=CC)C12 [Compound 6, (3R,4R,6R,7S,8S,10R)-1-oxo-3-methoxy-8-angeloyloxy-10-hydroxygermacra-11(13)-en-6,12-olide] | > 10 |  |  |  |
| C=C1C(=O)O[C@@H]2C[C@@H](C)/C=C\C(=O)[C@](C)(OC(C)=O)C[C@H](OC(=O)/C(C)=C\C)[C@@H]12 [Compound 7, ereglomerulide] | > 10 |  |  |  |
| C=C(C)C(=O)O[C@H]1C[C@@]2(C)OC(=CC2=O)/C(CO)=C\[C@H]2OC(=O)C(=C)[C@H]12 [Compound 8, goyazensolide] | 3.8 | active |  | exhibit cytotoxicity |
| C=C1C(=O)O[C@@H]2/C=C(/C)C3=CC(=O)[C@@](C)(C[C@H](OC(=O)/C(C)=C\C)[C@@H]12)O3 [Compound 12, lychnopholide] | 2.9 | active |  | exhibit cytotoxicity |
| C=C1C(=O)O[C@H]2[C@H]1CC/C(C)=C/CC[C@@]1(C)O[C@@H]21 [parthenolide, reference compound] |  |  |  | exhibit cytotoxicity |

Source: publication PMC3369275 (Tetrahedron, 2012)
